Assay [1] deals with MCF7 human breast cancer cell line. In words: MTT assay of MCF7 cells. As to conditions: Homo sapiens, media containing 1% fetal bovine serum. Format: cell-based. How it is done:
(§1) MDA-MB-231 and MCF7 cells were plated at a density of 8×10^3 cells/well and 10^4 cells/well in 96-well culture plates, respectively. The compounds were fed in serum free media containing 5% and 1% fetal bovine serum for MDA-MB-231 and MCF7 cells, respectively.

Assay [2] has as its system MDA-MB-231 human breast cancer cell line. Nature of the assay: MTT assay of MDA-MB-231 cells. The assay is classed as cell-based. As to conditions: Homo sapiens, media containing 5% fetal bovine serum. The protocol: as §1
For orientation: Tetrazolium dyes change colour on reduction, which living cells bring about.

For assay [3], the system named is MDA-MB-231 human breast cancer cells. Nature of the assay: Wound-healing assay (cell migration). The assay is classed as cell-based. Conditions: Homo sapiens; for inhibition at 5 µM: MDA-MB-231, 24 h, wound-healing assay; for IC50: MDA-MB-231, wound-healing assay, dose response, read-out: IC50 antimigratory activity. How it is done:
The highly metastatic human breast cancer MDA-MB-231 cells were cultured in RPMI 1640 medium containing 10 mM HEPES, 4 mM L-glutamine, 10% fetal bovine serum, penicillin (100 IU/mL), and streptomycin (50 μg/mL), and grown in a 5% CO2 atmosphere at 37° C. Cells were plated onto sterile 24-well and allowed to recover for a confluent cell monolayer formed in each well (>95% confluence). Wounds were then inflicted to each cell monolayer using a sterile 200 μL pipette tip. Media were removed, cells monolayers were washed twice with PBS, and then fresh media containing test compounds were added to each well. Test compounds were prepared in DMSO at 5 μM concentration and added to the plates, each in triplicate using DMSO as negative control. The incubation was carried out for 24 h under serum-starved conditions, after which media was removed and cells were fixed and stained using a staining composition sold under the trade name Diff Quick (Dade Behring Diagnostics, Aguada, Puerto Rico). The stain comprised a fixative reagent containing 1.8 mg/L triarylmethane dye in methyl alcohol; a first solution of 1 g/L xanthene dye, buffer, and sodium azide (0.01%) as preservative; and a second solution of 1.25 g/L Thiazine dye mixture (0.625 g/L azure A and 0.625 g/L methylene blue) and buffer. The number of cells migrated on the scratched wound were counted under the microscope in three or more randomly selected fields (magnification: 400×). Final results are expressed as mean±SEM per 400× field. The wound-healing assay is a simple method for the study of directional cell migration in vitro.
Compounds were tested for their ability to inhibit the migration of the highly metastatic MDA-MB-231 human breast cancer cells in the wound-healing assay using the procedure described above. Compounds 6, 10, 12, 13, 24, 26, 27, and 29 inhibited the migration of more than 50% of the human breast cancer cells MDA-MB-231 in the wound healing assay at 5 μM dose. […] The antimigratory activity of tocotrienols may be enhanced by a terminal aromatic functionality. The presence of electron withdrawing group, such as nitro in Compound 29, may eliminate the antiproliferative activity yet retain the antimigratory activity of the compound. While the electron donating groups, such as OH and OMe found in Compounds 23 and 26, respectively, retained both antiproliferative and antimigratory activities.
Utilizing similar procedures follow-up testing was conducted on a variety of compounds using a range of compound concentrations. The results of follow-up antimigratory testing are shown in FIG. 35B and Table III below with IC50 values calculated using statistical software.

The subject of assay [4] is MCF 10A non-tumorigenic mammary epithelial cells. In words: MTT assay of MCF10A cells. Conditions: for IC50: Homo sapiens; for Selectivity index: IC50 for MCF 10A divided by IC50 for +SA cell line. Format: cell-based, human. How it is done: MCF 10A (ATCC cat # CRL-10317) normal human non-tumorigenic mammary epithelial cells were maintained in serum-free defined medium consisting of Dulbecco's modified Eagle's medium (DMEM)/F12 containing 5% horse serum, 1% penicillin/streptomycin, 0.5 μg/mL hydrocortisone, 100 ng/mL cholera toxin, 10 μg/mL insulin, and 20 ng/mL epidermal growth factor (rhEGF). For subculturing, cells were rinsed twice with sterile Ca2+ and Mg2+-free phosphate buffered saline (PBS) and incubated in 0.25% trypsin containing 0.025% EDTA in PBS for 5 min at 37° C. The released cells were centrifuged, re-suspended in fresh media and counted using a hemocytometer. For testing, MCF 10A cells were plated at a density of 10×10^4 cells/well. A stock solution of the compounds was prepared in DMSO. DMSO was added to all treatment media such that the final DMSO concentration was the same in all treatment groups within a given experiment and was always less than 0.1%. The compounds were fed in serum free media. MCF10A mammary epithelial cell's viable number was determined by MTT colorimetric assay. […] IC50 values were calculated by non-linear regression using statistical software. The selectivity index indicated in the table represents the IC50 value for the MCF 10A cell line divided by the IC50 value for the +SA cell line.

Where [5] appears, read: MCF-10A, MCF10A cells, Table II, non-linear regression, read-out: MCF10A (IC50).
[6] abbreviates: MCF 10A non-tumorigenic cells, Table I, read-out: IC50 MCF 10A.

This is an account of results in patent US9115145B2, “Tocotrienol derivatives and associated methods” (FIRST TECH INTERNATIONAL LIMITED, priority 2011, dated 2015).

Read-outs that look alike come from different tables or passages of the source.

With `CC(C)=CCC/C(C)=C/CC/C(C)=C/CC[C@]1(C)CCc2c3c(cc(C)c2O1)OCN(CCCCCCCCCCCCO)C3` [Compound 44, 12-((R)-6,8-dimethyl-8-((3E,7E)-4,8,12-trimethyltrideca-3,7,11-trienyl)-9,10-dihydrochromeno[5,6-e][1,3]oxazin-2(1H,3H,8H)-yl)dodecan-1-ol], the IC50 was more than 20 µM in assay [1] and more than 50 µM in assay [2].
On the same counts, the results for `CC(C)=CCC/C(C)=C/CC/C(C)=C/CC[C@]1(C)CCc2c3c(c(C)c(C)c2O1)OCN(CCCCCCCCCCO)C3` [Compound 41, 10-((R)-5,6,8-trimethyl-8-((3E,7E)-4,8,12-trimethyltrideca-3,7,11-trienyl)-9,10-dihydrochromeno[5,6-e][1,3]oxazin-2(1H,3H,8H)-yl)decan-1-ol] are 19.4 µM and 15.7 µM.
As for `CC(C)=CCC/C(C)=C/CC/C(C)=C/CC[C@]1(C)CCc2c3c(c(C)c(C)c2O1)OCN(CCCCCCCCCCCCO)C3` [Compound 43, 12-((R)-5,6,8-trimethyl-8-((3E,7E)-4,8,12-trimethyltrideca-3,7,11-trienyl)-9,10-dihydrochromeno[5,6-e][1,3]oxazin-2(1H,3H,8H)-yl)dodecan-1-ol], the IC50 in assay [1] is more than 20 µM; in assay [2], more than 50 µM.
Consider `COc1ccc(CCN2COc3cc(C)c4c(c3C2)CC[C@@](C)(CC/C=C(\C)CC/C=C(\C)CCC=C(C)C)O4)cc1OC` [Compound 24, (R)-2-(3,4-dimethoxyphenethyl)-6,8-dimethyl-8-((3E,7E)-4,8,12-trimethyltrideca-3,7,11-trienyl)-1,2,3,8,9,10-hexahydrochromeno[5,6-e][1,3]oxazine], for which the inhibition at 5 µM in assay [3] is more than 50%.
With `CC(C)=CCC/C(C)=C/CC/C(C)=C/CC[C@]1(C)CCc2c3c(c(C)c(C)c2O1)OCN(CCCCCCO)C3` [Compound 37, 6-((R)-5,6,8-trimethyl-8-((3E,7E)-4,8,12-trimethyltrideca-3,7,11-trienyl)-9,10-dihydrochromeno[5,6-e][1,3]oxazin-2(1H,3H,8H)-yl)hexan-1-ol], the IC50 was more than 20 µM in assay [1] and more than 10 µM in assay [2].
Regarding `CC(C)=CCC/C(C)=C/CC/C(C)=C/CC[C@]1(C)CCc2c3c(cc(C)c2O1)OCN(CCCCCO)C3` [Compound 18, 5-((R)-6,8-dimethyl-8-((3E,7E)-4,8,12-trimethyltrideca-3,7,11-trienyl)-9,10-dihydrochromeno[5,6-e][1,3]oxazin-2(1H,3H,8H)-yl)pentan-1-ol], the IC50 turned out to be 9.1 µM in assay [1], 4.6 µM in assay [4] (setting [5]), 4.6 µM in assay [4] (setting [6]) and 9 µM in assay [2]. For the same compound, in assay [4], the Selectivity index is recorded as 6.57.
`CC(C)=CCC/C(C)=C/CC/C(C)=C/CC[C@]1(C)CCc2c3c(cc(C)c2O1)OCN(CCCCCCCCCCO)C3` [Compound 42, 10-((R)-6,8-dimethyl-8-((3E,7E)-4,8,12-trimethyltrideca-3,7,11-trienyl)-9,10-dihydrochromeno[5,6-e][1,3]oxazin-2(1H,3H,8H)-yl)decan-1-ol]: the IC50 was 4.6 µM in assay [1], 7.2 µM in assay [3] and 12.4 µM in assay [2].
As for `CC(C)=CCC/C(C)=C/CC/C(C)=C/CC[C@]1(C)CCc2c3c(c(C)c(C)c2O1)OCN(CCCO)C3` [Compound 12, 3-((R)-5,6,8-trimethyl-8-((3E,7E)-4,8,12-trimethyltrideca-3,7,11-trienyl)-9,10-dihydrochromeno[5,6-e][1,3]oxazin-2(1H,3H,8H)-yl)propan-1-ol], the IC50 in assay [1] was more than 20 µM; in assay [3] it was 8.1 µM; in assay [2], 9.6 µM. Moreover, in assay [3], the inhibition at 5 µM is more than 50%.
Turning to `CC(C)=CCC/C(C)=C/CC/C(C)=C/CC[C@]1(C)CCc2c3c(c(C)c(C)c2O1)OCN(CCCCCCCCO)C3` [Compound 39, 8-((R)-5,6,8-trimethyl-8-((3E,7E)-4,8,12-trimethyltrideca-3,7,11-trienyl)-9,10-dihydrochromeno[5,6-e][1,3]oxazin-2(1H,3H,8H)-yl)octan-1-ol], the IC50 in assay [1] was more than 20 µM; in assay [4] (setting [5]) it was 2 µM; in assay [4] (setting [6]), 2 µM; in assay [3], 4.7 µM; in assay [2] it was more than 20 µM. This compound also showed a Selectivity index in assay [4] of 1.43.
Turning to `CC(C)=CCC/C(C)=C/CC/C(C)=C/CC[C@]1(C)CCc2c3c(c(C)c(C)c2O1)OCN(CCCCO)C3` [Compound 35, 4-((R)-5,6,8-trimethyl-8-((3E,7E)-4,8,12-trimethyltrideca-3,7,11-trienyl)-9,10-dihydrochromeno[5,6-e][1,3]oxazin-2(1H,3H,8H)-yl)butan-1-ol], the results for the IC50 in assay [1], in assay [3] and in assay [2] were more than 20 µM, 10.7 µM and 13.8 µM, respectively.
Regarding `CC(C)=CCC/C(C)=C/CC/C(C)=C/CC[C@]1(C)CCc2c3c(cc(C)c2O1)OCN(CCO)C3` [Compound 10, 2-((R)-6,8-dimethyl-8-((3E,7E)-4,8,12-trimethyltrideca-3,7,11-trienyl)-9,10-dihydrochromeno[5,6-e][1,3]oxazin-2(1H,3H,8H)-yl)ethanol], the IC50 in assay [1] was 6 µM; in assay [4] (setting [6]), 3.1 µM; in assay [3], 1.3 µM; in assay [2], more than 5 µM. Besides, the inhibition at 5 µM in assay [3] is more than 50%.
Consider `CC(C)=CCC/C(C)=C/CC/C(C)=C/CC[C@]1(C)CCc2c3c(cc(C)c2O1)OCN(CCc1ccc(O)cc1)C3` [Compound 27, 4-(2-((R)-6,8-dimethyl-8-((3E,7E)-4,8,12-trimethyltrideca-3,7,11-trienyl)-9,10-dihydrochromeno[5,6-e][1,3]oxazin-2(1H,3H,8H)-yl)ethyl)phenol], for which the IC50 in assay [1] is 18.2 µM; in assay [4] (setting [5]) it was 1.9 µM; in assay [4] (setting [6]), 1.9 µM; in assay [3] it was 2.4 µM; in assay [2], more than 5 µM. The compound further returned a Selectivity index in assay [4] of 2.09. The compound also returned an inhibition at 5 µM in assay [3] of more than 50%.

By IC50 is commonly meant the midpoint of a concentration-inhibition curve. Usually inhibition stands for the relative decrease from the control value, in per cent. A higher inhibition goes with a response far below the control.
